Test results as given in ChEMBL document CHEMBL4613240, “Pagoamide A, a Cyclic Depsipeptide Isolated from a Cultured Marine Chlorophyte, Derbesia sp., Using MS/MS-Based Molecular Networking” (J Nat Prod, 2020).
Calls of active or inactive are those of the source. The calls are words filed in the database; no cut-off is given here.

Key:
Cerebral cortex neuron = test: Modulation of calcium oscillation in Swiss-Webster gravid dams mouse cerebrocortical neurons measured for 2 mins on day 12 by fluo-3 AM dye based fluorescence assay; format: functional, cell-based
NCI-H460 = test: Cytotoxicity against human NCI-H460 cells at 30 uM incubated for 48 hrs by MTT assay; format: functional, cell-based

CC(C)[C@@H]1NC(=O)[C@@H](Cc2ccccc2)NC(=O)[C@@H](C)NC(=O)[C@H](CO)NC(=O)[C@@H](NC(=O)[C@@H](CO)NC(=O)c2csc(CNC(=O)c3csc([C@H](C(C)C)N(C)C)n3)n2)[C@@H](C)OC(=O)[C@H](Cc2ccccc2)NC1=O
Activity (Cerebral cortex neuron): inactive
Activity (NCI-H460): inactive
